Assays:
[1] = tested on: Escherichia coli Tat pathway; experiment: Live cell assay: total mCherry fluorescence of cells producing spTorA-mCherry-SsrA (primary HTS assay); assay type: cell-based; details: for effect on mCherry fluorescence in culture: nigericin and/or valinomycin, 50 μM each
Excerpt: Having obtained the calibration and validation data described in the previous sections, we next established the protocol for the HTS. Details are provided in the Materials and Methods section. Here, we briefly summarize the assay. A single colony of E. coli strain MC4100(DE3) containing plasmids encoding TatABC and spTorA-mCherry-SsrA was inoculated into LB and grown overnight. The next morning, cells were transferred to fresh media, the production of TatABC and spTorA-mCherry-SsrA was induced, and cultures were aliquoted onto plates with test compounds. NaSCN was included in control wells to simulate a hit. Cells were grown for 8 h, followed by incubation at 4°C overnight, and then read the next day. Setting the total cellular fluorescence obtained with spTorA-mCherry-H6 under Tat^++ conditions to 100%, spTorA-mCherry-SsrA yielded a total cellular fluorescence signal of 63±14%, consistent with SsrA-induced degradation of the mCherry protein. The total cellular fluorescence was further reduced to 36±14% in the presence of 30 mM NaSCN (simulated hit), and to 41±6% in the absence of TatABC, verifying the Δψ- and Tat-dependence of the fluorescence signal (Fig 4D).
A single colony of E. coli strain MC4100(DE3) (pTatABC-DUET1, pTorA-mCherry-SsrA) was inoculated into a 100 mL LB culture supplemented with Ap and Cm and grown at 37°C with shaking (250 rpm) overnight. Cells were harvested by centrifugation at 4,000g for 10 min at room temperature (RT), suspended in 10 mL fresh LB broth supplemented with Ap and Cm, and the optical density (A500) was determined. Simultaneously, 700 mL LB supplemented with 100 mM arabinose, 2 mM IPTG, 100 μg/mL Ap and 68 μg/mL Cm was filter-sterilized (0.22 μm), and then divided into 200 mL (A) and 500 mL (B) portions. Sterile NaSCN (30 mM final; 1.5 mL of 4 M NaSCN) was added to portion A, and an equal ratio of sterile water was added to portion B (3.75 mL). Media and cells were transferred to the HTS facility on ice.
A CyBi-Well vario pipetting workstation (CyBio, Jena, Germany) was used to dispense library compounds and cultures. Library compounds (1 μL) solubilized in DMSO were added to 384-well black, clear-bottomed plates (Greiner Bio-one, Germany) in columns 3 to 22 (320 wells/plate). For controls, DMSO (1 μL) was added to each well in columns 1, 2, […], to achieve DMSO uniformity across the plate. Both portions of LB media were inoculated with E. coli MC4100(DE3) (pTatABC-DUET1, pTorA-mCherry-SsrA) from the concentrated stock to a final A500 = 0.15. The media with 30 mM NaSCN (positive control, or simulated hit) was dispensed into each well of columns 1 and 24 (49 μL each). An equivalent volume of media without NaSCN was dispensed into each well of columns 2 to 23. Columns 2 and 23 lacked NaSCN and test compounds and served as negative controls. The first 12,800 compounds were screened at 5 μM (plates 1–40), and the remaining 38,800 compounds were screened at 20 μM (plates 41–162).
(§1) The plates containing cells and dispersed test compounds were grown with shaking (200 rpm) at 25°C for 8 h. Plates were individually mounted, not stacked, on a hollow plastic platform, allowing adequate air circulation. Following the 8 h incubation, plates were transferred to 4°C for 16 h. Each plate was covered with an empty plate to prevent condensation on the lid. […] Following the incubation, plates were read using a BMG Polarstar Omega plate reader (BMG Labtech, Ortenberg, Germany) to determine optical densities (A500) and mCherry fluorescence intensities (EX = 584 nm, EM = 620 nm).
Supplementary file pone.0149659.s003.tiff: S3 Fig IC50's for Hit Compound 181^JS. (A) The total cellular mCherry fluorescence (live cell assay; n = 1), (B) the in vitro NADH-dependent Tat transport efficiency of pre-SufI (n = 1), and (C) the maximum transmembrane electrical potential gradient (n = 1) were measured for a range of concentrations of compound 181^JS (S2E Fig). (D) SDS-PAGE gel showing in-gel fluorescence data used in (B). […]

[2] = tested on: E. coli MC4100(DE3); experiment: Cell growth (optical density A500) under Tat++ conditions; assay type: cell-based, Escherichia coli
Experimental: Fig 4 Effect of Oxidative Phosphorylation Inhibitors on In Vivo Tat Transport and Sensitivity of Fluorescence Detection on Plates. (A) Effect of oxidative phosphorylation inhibitors on cell growth and mCherry fluorescence under Tat^++ conditions. Cells producing spTorA-mCherry-SsrA under Tat^++ conditions were grown at 25°C for 8 h in the presence of the indicated respiratory inhibitors. After overnight incubation at 4°C, optical densities (upper panel; A500) and total mCherry cellular fluorescence intensities (lower panel; EX = 587 nm, EM = 610 nm) were measured (n = 3). Nigericin (N; 50 μM) is a H^+/K^+ exchanger, which collapses the ΔpH gradient. Valinomycin (V; 50 μM) is a K^+ ionophore, which collapses the Δψ. NaSCN (SCN; 50 mM) collapses the Δψ. NaN3 (N3; 0.1%) inhibits the cytochrome bo3 terminal oxidase. (B) Effect of NaSCN concentration on cell density and total mCherry cellular fluorescence. Measurements were made after incubating cells overnight at 4°C (n = 3). (C) Calibration and sensitivity of mCherry fluorescence detection in 384-well plates. Overnight cultures of E. coli MC4100(DE3) cells were diluted to A500 = 0.25, 0.2, 0.15, 0.10 and 0.05, and aliquoted into 384-well plates. The spTorA-mCherry-SsrA and TatABC proteins were induced together or neither were induced, as indicated. The cells were incubated at 25°C for 8 hours, and stored overnight at 4°C. Optical densities (upper panel) and mCherry fluorescence intensities (lower panel) were determined with a BMG Polarstar Omega plate reader (at 500 nm for absorbance; EX = 584 nm, EM = 620 nm for fluorescence). For comparison, the absorbance and fluorescence intensities from purified spTorA-mCherry-H6 (30, 25, 20, 15, 10 and 5 nM) are also shown (n = 3 plates, 16 wells/plate). (D) Simulated hits on 384-well plates. Using the approach described in (C), cells (A500 = 0.15) were grown on plates under the indicated conditions, and then fluorescence intensities were measured. spTorA-mCherry-SsrA was used for conditions II-IV. spTorA-mCherry-H6 was used for a minus SsrA control (I; 100%). The SsrA tag decreased the mCherry fluorescence intensity (II; 63±14%), consistent with a decrease in cytoplasmic mCherry concentration due to SsrA-dependent degradation.
as §1
Supplementary file pone.0149659.s005.tiff: S5 Fig Effect of P. aeruginosa Tat Inhibitors on E. coli Cell Growth and Tat Transport. The concentration-dependent effects of Bay 11–7082 (A) and N-phenylmaleimide (B) on bacterial growth (black) and in vivo Tat transport of spTorA-mCherry-SsrA (red) was determined under Tat^++ conditions (top). An overnight culture of MC4100(DE3) (pTorA-mCherry-SsrA, pTatABC-Duet1) was diluted 1:50 in 10 mL fresh LB broth with appropriate antibiotics and dispensed (2 mL) into 5 tubes, and growth was continued at 37°C with shaking at 200 rpm until A500 ≈ 0.5. The indicated concentrations of the two compounds were added, and the expression of spTorA-mCherry-SsrA and TatABC were induced. Cultures were grown for another 8 h at 25°C. Cell growth was assayed by A500, and cells (1 mL, A500 = 1.0) were fractionated into cytoplasmic (C) and periplasmic (P) fractions as described. Transport of spTorA-mCherry-SsrA was assayed by in-gel fluorescence of mCherry (upper gels) and Western blot analyses (middle gels). […]

[3] = molecular target: E. coli Tat machinery (IMVs containing overproduced TatABC) (Escherichia coli, UniProt P69423+P69425+P69428); details: cited from earlier work; for effect on Tat transport in vitro: 2.5 μM of each of the two ionophores, both added
[4] = nigericin and/or valinomycin, 50 μM each

Sequence of E. coli Tat machinery (IMVs containing overproduced TatABC) (P69423 2-258): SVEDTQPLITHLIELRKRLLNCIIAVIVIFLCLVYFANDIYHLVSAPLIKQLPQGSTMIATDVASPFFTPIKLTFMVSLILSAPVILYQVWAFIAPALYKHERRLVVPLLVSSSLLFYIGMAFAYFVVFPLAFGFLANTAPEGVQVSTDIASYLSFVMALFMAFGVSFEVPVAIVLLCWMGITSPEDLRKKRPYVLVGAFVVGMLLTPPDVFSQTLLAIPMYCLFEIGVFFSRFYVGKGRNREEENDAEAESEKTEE
Sequence of E. coli Tat machinery (IMVs containing overproduced TatABC) (P69425 whole entry): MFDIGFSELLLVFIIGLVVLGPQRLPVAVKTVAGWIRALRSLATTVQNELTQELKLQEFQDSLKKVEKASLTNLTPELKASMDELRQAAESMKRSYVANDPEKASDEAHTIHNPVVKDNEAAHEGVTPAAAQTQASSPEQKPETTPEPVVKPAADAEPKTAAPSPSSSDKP
Sequence of E. coli Tat machinery (IMVs containing overproduced TatABC) (P69428 whole entry): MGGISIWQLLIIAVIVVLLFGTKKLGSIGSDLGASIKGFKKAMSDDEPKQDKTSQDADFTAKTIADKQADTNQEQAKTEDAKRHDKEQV

N#C[S-].[Na+] [NaSCN]
total cellular fluorescence (mCherry) ([1]; 30 mM NaSCN, spTorA-mCherry-H6 under Tat++ = 100%, spTorA-mCherry-SsrA without NaSCN 63±14%): 36±14% | reduction of mCherry fluorescence ([1]; NaSCN 50 mM, Tat++ cells, 25°C 8 h): ~ 40% | concentration sufficient to maximally reduce the mCherry fluorescence signal without affecting cell growth ([1]; dose response, Tat++ cells): 30 mM | effect on growth of E. coli cultures ([2]; NaSCN 50 mM): without affecting growth | effect on in vitro Tat transport ([3]; NaSCN alone): completely inhibits

[N-]=[N+]=[N-].[Na+] [Sodium azide]
effect on mCherry fluorescence signal ([1]; NaN3 0.1%): decreased the mCherry fluorescence signal | effect on cell growth ([2]; NaN3 0.1%): inhibited cell growth

CO[C@@H]1C[C@@H](C[C@H]2CC[C@H](C)[C@H]([C@@H](C)C(=O)O)O2)O[C@]2(O[C@](C)([C@H]3CC[C@@](C)([C@@H]4O[C@@H]([C@H]5O[C@@](O)(CO)[C@H](C)C[C@@H]5C)C[C@@H]4C)O3)C[C@H]2C)[C@@H]1C [nigericin]
effect on mCherry fluorescence in culture [1]: did not affect | effect on cell growth [2, 4]: did not affect | effect on Tat transport in vitro [3]: completely block

CC(C)[C@@H]1NC(=O)[C@H](C)OC(=O)[C@@H](C(C)C)NC(=O)[C@@H](C(C)C)OC(=O)[C@H](C(C)C)NC(=O)[C@H](C)OC(=O)[C@@H](C(C)C)NC(=O)[C@@H](C(C)C)OC(=O)[C@H](C(C)C)NC(=O)[C@H](C)OC(=O)[C@@H](C(C)C)NC(=O)[C@@H](C(C)C)OC1=O [valinomycin]
effect on mCherry fluorescence in culture [1]: did not affect | effect on cell growth [2, 4]: did not affect | effect on Tat transport in vitro [3]: completely block

From PMC4764201, “High Throughput Screen for Escherichia coli Twin Arginine Translocation (Tat) Inhibitors” (PLoS ONE, 2016)
